The values that follow come from patent US5312625A, “Fused 7-membered cyclic compound and antipsychotic preparation containing the same” (Suntory Limited, priority 1990, dated 1994).

This assay addresses T1, serotonin receptor (Rattus norvegicus, UniProt P19327).
T1 construct: To a cerebral cortex nucleated from a Wistar-strain male rat; from tissue; host or cells: cerebral cortex of male Wistar rat (membrane preparation)
T1 sequence (P19327 1-422): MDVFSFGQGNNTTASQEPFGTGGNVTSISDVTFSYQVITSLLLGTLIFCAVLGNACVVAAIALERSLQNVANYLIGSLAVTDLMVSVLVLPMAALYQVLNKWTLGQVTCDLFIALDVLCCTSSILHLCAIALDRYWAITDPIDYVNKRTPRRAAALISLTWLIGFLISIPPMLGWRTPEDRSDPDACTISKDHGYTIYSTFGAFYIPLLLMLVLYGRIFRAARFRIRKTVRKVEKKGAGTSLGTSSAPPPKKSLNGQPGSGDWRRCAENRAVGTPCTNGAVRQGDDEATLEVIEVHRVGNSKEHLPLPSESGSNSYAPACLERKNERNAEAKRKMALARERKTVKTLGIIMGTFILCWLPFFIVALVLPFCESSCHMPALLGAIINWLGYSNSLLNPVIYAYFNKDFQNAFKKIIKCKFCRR
The experiment in a line: Affinity for serotonin receptor, [3H]8-OHDPAT binding test in rat cerebral cortex. The arrangement: species or system rat (Wistar-strain male). As to conditions: [3H]8-OHDPAT 0.4 nM; rat cerebral cortex membranes; pH 7.4; 25° C., 30 minutes; read-out: [^3 H]-8-OH-DPAT IC50. On the procedure: The experiment was carried out according to the method of S. T. Perouka (J. Neurochem., 47, 529-540 (1986)).
To a cerebral cortex nucleated from a Wistar-strain male rat was added 50 mM Tris-HCl (pH 7.7) buffer, and the mixture was homogenized by a Polytron®. The homogenate was centrifuged at 40,000 G for 10 minutes, and the same buffer was added to the precipitate obtained, followed by homogenization and incubation at 37° C. for 30 minutes. The suspension was again subjected to centrifugation at 40,000 G for 10 minutes, and the same buffer was added to the precipitate, followed by homogenization and a further centrifugation at 40,000 G for 10 minutes. To the final precipitate obtained was added 50 mM Tris-HCl (10 μM pargyline, 4 mM CaCl2 0.1% ascorbic acid) (pH 7.4), and the mixture was homogenized and used for the binding test. The [^3 H]8-OHDPAT used for the binding test was 0.4 nM, with the protein amount being 0.4 to 0.6 mg/ml and the total amount 1 ml. After incubation at 25° C. for 30 minutes, the mixture was filtered by the filtration method, using the Whatman GF/B filter, and the filter was washed 3 times with 5 ml of the same buffer. To the filter was added a scintillation cocktail, followed by a measurement by a liquid scintillation counter.

The term IC50 denotes the concentration at which inhibition is half-maximal. `O=C1CCc2ccccc2C(=O)N1CCCCN1CCN(c2ncccn2)CC1` [Example 28, 2-(4-(4-(2-pyrimidinyl)piperazinyl)butyl)-1,3,4,5-tetrahydro-2-benzazepine-1,3-dione]: the 50% inhibitory concentration (IC50) stood at 58.4 nM. For `O=C1CSc2ccccc2C(=O)N1CCCCN1CCN(c2ncccn2)CC1` [Example 19, 4-(4-(4-(2-pyrimidinyl)piperadinyl)butyl)-2,3,4,5-tetrahydro-1,4-benzothiazepine-3,5-dione] the value was 14.3 nM. With `O=C1CSc2ccccc2C(=O)N1CCCCN1CCN(c2ccccc2)CC1` [Example 17], the IC50 came to 9.29 nM. For `O=C1CNc2ccccc2C(=O)N1CCCCN1CCN(c2ccccn2)CC1` [Example 21, 4-(4-(4-(2-pyridyl)piperazinyl)butyl)-2,3,4,5-tetrahydro-1,4-benzodiazepine-3,5-dione] the value was 13.3 nM.

As for `CN1CC(=O)N(CCCCN2CCN(c3ncccn3)CC2)C(=O)c2ccccc21` [Example 25], the IC50 worked out at 270 nM. `CN1CC(=O)N(CCCCN2CCN(c3ccccn3)CC2)C(=O)c2ccccc21` [Example 24, 1-methyl-4-(4-(4-(2-pyridyl)piperazinyl)butyl)-2,3,4,5-tetrahydro-1,4-benzodiazepine-3,5-dione]: the IC50 turned out to be 61.4 nM. For `O=C1CCc2ccccc2C(=O)N1CCCCN1CCN(c2ccccn2)CC1` [Example 27, 2-(4-(4-(2-pyridyl)piperazinyl)butyl)-1,3,4,5-tetrahydro-2-benzazepine-1,3-dione], the concentration for half-maximal inhibition (IC50) amounted to 17.1 nM.

Regarding `O=C1CNc2ccccc2C(=O)N1CCCCN1CCN(c2ncccn2)CC1` [Example 22, 4-(4-(4-(2-pyrimidinyl)piperazinyl)butyl)-2,3,4,5-tetrahydro-1,4-benzodiazepine-3,5-dione], the IC50 amounted to 67.3 nM. Turning to `O=C1CSc2ccccc2C(=O)N1CCCCN1CCN(c2ccccn2)CC1` [Example 18, 4-(4-(4-(2-pyridyl)piperazinyl)butyl)-2,3,4,5-tetrahydro-1,4-benzothiazeoine-3,5-dione], the IC50 came to 3.28 nM.
